{
  "source": "patent US20110081429A1",
  "about": "“COMPOSITION FOR EXTERNAL USE” (priority 2008, published 2011)",
  "tested_on": "IGF-1 secretion in the skin",
  "test": "IGF-1 concentration in the skin after application of essential oil and/or AMP (Experimental Example 1)",
  "assay_type": "in vivo, hairless mice (Hos: HR-1)",
  "settings": "hairless mice, 400 μl on back skin (3 cm×5 cm), 30 minutes after the application; FIG. 1a-1c",
  "experimental": "In order to examine how the effect of essential oils on the amount of IGF-1 secretion in the skin is affected by AMP, the following compositions containing an essential oil and AMP (Examples 1 to 3 and Comparative Examples 1 to 5) were prepared by a standard method. The pH of each composition was adjusted with NaOH such that the pH ranged from 6.5 to 7.0.\n400 μl of a test solution was applied to the skin on the back (3 cm×5 cm) of hairless mice (Hos: HR-1, Japan SLC, Inc., female, 6 to 8 weeks age). 30 minutes after the application, the skin was extracted and frozen-crushed. Then, the IGF-1 concentration in the skin was measured using Quantikine (registered trademark) Mouse IGF-1 Immunoassay (R&D Systems, Inc.).\nThe composition shown in Table 1 was used as a test solution.\nThe secreted IGF-1 concentration was measured according to the method described in Experiment 1-1. The composition shown in Table 1 above was used as a test solution.",
  "note": "“Also recorded” adds a separate entry of the source.",
  "data": [
    {"smiles": "Nc1ncnc2c1ncn2[C@@H]1O[C@H](COP(=O)(O)O)[C@@H](O)[C@H]1O", "note": "[AMP, adenosine-5′-monophosphate]", "values": [
      {"measurement": "stimulatory effect on IGF-1 secretion (IGF-1 concentration in the skin)", "result": "did not produce a stimulatory effect on IGF-1 secretion when used alone; also recorded: neither AMP or Scotch pine needle oil stimulated IGF-1 secretion when used alone; also recorded: did not produce a sufficient stimulatory effect on IGF-1 secretion"}
    ]}
  ]
}
